# Key:
# [1] = target: T1, Muscarinic acetylcholine receptor M1 (Rattus norvegicus, UniProt P08482); assay: Agonist activity at rat muscarinic M1 expressed in CHO cells assessed as stimulation of calcium mobilization; assay type: functional, cell-based
# T1 sequence (P08482 whole entry): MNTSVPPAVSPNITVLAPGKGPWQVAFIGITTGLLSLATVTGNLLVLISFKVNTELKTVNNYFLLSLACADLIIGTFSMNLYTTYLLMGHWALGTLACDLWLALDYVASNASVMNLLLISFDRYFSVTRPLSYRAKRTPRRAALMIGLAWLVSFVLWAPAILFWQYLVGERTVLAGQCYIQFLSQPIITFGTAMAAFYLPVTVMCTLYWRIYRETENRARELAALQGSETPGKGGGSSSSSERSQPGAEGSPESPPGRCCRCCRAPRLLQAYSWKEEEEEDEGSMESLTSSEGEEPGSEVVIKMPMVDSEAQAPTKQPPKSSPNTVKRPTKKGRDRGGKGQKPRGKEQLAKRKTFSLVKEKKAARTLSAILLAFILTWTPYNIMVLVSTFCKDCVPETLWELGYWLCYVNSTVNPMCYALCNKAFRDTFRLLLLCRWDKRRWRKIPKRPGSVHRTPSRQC
# [2] = target: T2, Muscarinic acetylcholine receptor M5 (Homo sapiens, UniProt P08912); assay: Agonist activity at human muscarinic M5 expressed in CHO cells assessed as stimulation of calcium mobilization; assay type: functional, cell-based
# T2 sequence (P08912 whole entry): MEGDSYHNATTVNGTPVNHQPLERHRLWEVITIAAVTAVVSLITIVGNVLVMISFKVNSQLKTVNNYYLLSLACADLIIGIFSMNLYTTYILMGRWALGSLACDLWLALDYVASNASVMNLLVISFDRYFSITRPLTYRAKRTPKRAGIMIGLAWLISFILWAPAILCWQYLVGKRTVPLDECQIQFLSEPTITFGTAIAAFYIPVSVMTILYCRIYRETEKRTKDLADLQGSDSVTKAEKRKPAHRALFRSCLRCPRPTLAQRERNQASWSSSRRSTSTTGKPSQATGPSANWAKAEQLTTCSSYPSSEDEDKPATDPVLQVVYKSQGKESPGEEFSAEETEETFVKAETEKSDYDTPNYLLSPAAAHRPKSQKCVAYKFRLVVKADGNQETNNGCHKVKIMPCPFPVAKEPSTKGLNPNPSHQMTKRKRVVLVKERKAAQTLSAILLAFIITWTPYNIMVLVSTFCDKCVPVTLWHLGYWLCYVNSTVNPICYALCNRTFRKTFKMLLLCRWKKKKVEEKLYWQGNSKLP
# [3] = target: T3, Muscarinic acetylcholine receptor M5 (Homo sapiens) (UniProt P08912); assay: Agonist activity at human muscarinic M5 expressed in CHO cells assessed as stimulation of calcium mobilization relative to acetyle choline; assay type: functional, cell-based; set-up: concentration or dose not given beside the values
# T3 sequence (whole entry): T2 sequence (P08912 whole entry)
# [4] = Ratio of AUC in rat brain to AUC in rat plasma; assay type: ADME, tissue-based; conditions: read-out: Ratio AUC
# [5] = target: T4, Muscarinic acetylcholine receptor M2 (Rattus norvegicus, UniProt P10980); assay: Agonist activity at rat muscarinic M2 expressed in CHO cells assessed as stimulation of calcium mobilization; assay type: functional, cell-based
# T4 sequence (P10980 whole entry): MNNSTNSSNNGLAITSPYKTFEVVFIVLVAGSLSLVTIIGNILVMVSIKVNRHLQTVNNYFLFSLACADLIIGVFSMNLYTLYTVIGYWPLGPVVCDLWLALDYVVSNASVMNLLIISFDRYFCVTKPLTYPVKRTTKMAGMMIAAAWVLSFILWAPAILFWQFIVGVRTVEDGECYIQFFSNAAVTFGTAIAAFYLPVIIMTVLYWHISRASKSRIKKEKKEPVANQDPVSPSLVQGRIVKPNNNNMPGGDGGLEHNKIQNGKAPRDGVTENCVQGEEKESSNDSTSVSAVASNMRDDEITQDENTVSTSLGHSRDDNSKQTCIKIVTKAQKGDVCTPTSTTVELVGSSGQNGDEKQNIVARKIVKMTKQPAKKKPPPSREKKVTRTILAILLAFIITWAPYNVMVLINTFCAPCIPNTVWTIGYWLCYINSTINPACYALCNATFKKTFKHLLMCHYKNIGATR
# [6] = target: T5, Muscarinic acetylcholine receptor M4 (Rattus norvegicus, UniProt P08485); assay: Agonist activity at rat muscarinic M4 expressed in CHO cells assessed as stimulation of calcium mobilization; assay type: functional, cell-based
# T5 sequence (P08485 whole entry): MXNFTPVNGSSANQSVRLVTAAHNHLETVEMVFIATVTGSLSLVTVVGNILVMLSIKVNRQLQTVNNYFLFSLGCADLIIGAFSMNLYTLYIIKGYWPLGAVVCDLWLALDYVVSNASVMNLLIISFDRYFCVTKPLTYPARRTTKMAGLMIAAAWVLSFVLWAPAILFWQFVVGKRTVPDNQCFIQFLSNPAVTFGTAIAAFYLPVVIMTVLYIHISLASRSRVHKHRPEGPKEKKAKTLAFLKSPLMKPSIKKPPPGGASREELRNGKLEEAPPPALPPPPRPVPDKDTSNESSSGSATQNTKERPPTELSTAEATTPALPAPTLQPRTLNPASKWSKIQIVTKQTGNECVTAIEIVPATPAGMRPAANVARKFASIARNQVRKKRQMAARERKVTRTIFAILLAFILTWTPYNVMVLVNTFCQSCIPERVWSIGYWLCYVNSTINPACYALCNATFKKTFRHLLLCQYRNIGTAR
# [7] = target: T6, Muscarinic acetylcholine receptor M1 (Rattus norvegicus) (UniProt P08482); assay: Agonist activity at rat muscarinic M1 expressed in CHO cells assessed as stimulation of calcium mobilization at 30 uM; assay type: functional, cell-based
# T6 sequence (whole entry): T1 sequence (P08482 whole entry)
# [8] = target: Muscarinic acetylcholine receptor M3 (Homo sapiens) (UniProt P20309); assay: Agonist activity at human muscarinic M3 expressed in CHO cells assessed as stimulation of calcium mobilization at 30 uM; assay type: functional, cell-based
# Muscarinic acetylcholine receptor M3 (Homo sapiens), sequence (P20309 whole entry, looked up): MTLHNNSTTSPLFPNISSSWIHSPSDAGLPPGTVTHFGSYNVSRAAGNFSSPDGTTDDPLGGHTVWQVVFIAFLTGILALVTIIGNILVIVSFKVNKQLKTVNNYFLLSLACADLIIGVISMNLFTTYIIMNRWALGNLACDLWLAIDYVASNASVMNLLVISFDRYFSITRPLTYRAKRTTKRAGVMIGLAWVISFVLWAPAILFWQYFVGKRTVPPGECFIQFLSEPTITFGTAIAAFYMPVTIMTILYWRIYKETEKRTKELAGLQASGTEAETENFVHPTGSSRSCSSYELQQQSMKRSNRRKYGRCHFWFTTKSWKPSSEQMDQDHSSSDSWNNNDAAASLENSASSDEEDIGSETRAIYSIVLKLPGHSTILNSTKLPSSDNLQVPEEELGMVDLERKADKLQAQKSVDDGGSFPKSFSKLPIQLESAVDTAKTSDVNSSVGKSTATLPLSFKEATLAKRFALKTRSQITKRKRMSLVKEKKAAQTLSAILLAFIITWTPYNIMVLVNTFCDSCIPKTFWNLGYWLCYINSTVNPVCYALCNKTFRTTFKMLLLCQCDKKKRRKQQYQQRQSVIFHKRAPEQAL
SMILES,EC50 [1] [µM],EC50 [2] [µM],Activity [3] [%],Kp [4],EC50 [5] [µM],EC50 [6] [µM],Activity [7] [%],Activity [8] [%]
O=C1C(=O)N(Cc2ccc(-c3ccc(Cl)nc3)cc2)c2ccc(OC(F)(F)F)cc21,> 30,4.8,85,0.25,–,–,–,–
O=C1C(=O)N(Cc2ccc(-c3ccccc3)cc2)c2ccc(OC(F)(F)F)cc21,> 30,2.7,85,0.25,–,–,–,–
O=C1C(=O)N(Cc2ccc(Br)cc2)c2ccccc21,–,–,–,0.25,> 30,> 30,–,–
Cn1cc(-c2ccc(CN3C(=O)C(=O)c4cc(OC(F)(F)F)ccc43)cc2)cn1,> 30,3.3,85,0.25,–,–,–,–
O=C1C(=O)N(Cc2ccc(Oc3ccccc3)cc2)c2ccc(OC(F)(F)F)cc21,–,1.9,75,–,–,–,–,–
O=C1C(=O)N(Cc2ccc(-c3ccccc3)cc2)c2cc(OC(F)(F)F)ccc21,–,2.7,–,–,–,–,–,–
COc1ccc(CN2C(=O)C(=O)c3cc(OC(F)(F)F)ccc32)cc1,–,1.1,–,0.25,> 30,> 30,30,30
O=C1C(=O)N(Cc2ccc(-c3ccsc3)cc2)c2ccc(OC(F)(F)F)cc21,> 30,2.8,85,0.25,–,–,–,–
O=C1C(=O)N(Cc2ccc(C(F)(F)F)cc2)c2c(Cl)cccc21,–,–,–,0.25,–,> 10,–,–
O=C1C(=O)N(Cc2ccc(-c3ccc(F)nc3)cc2)c2ccc(OC(F)(F)F)cc21,> 30,3.6,80,0.25,–,–,–,–
COc1ccccc1-c1ccc(CN2C(=O)C(=O)c3cc(OC(F)(F)F)ccc32)cc1,> 30,3.9,70,0.25,–,–,–,–
COc1ccc(CN2C(=O)C(=O)c3ccc(OC(F)(F)F)cc32)cc1,–,5.7,–,–,–,–,–,–

# — ChEMBL document CHEMBL1153220, “Chemical lead optimization of a pan G(q) mAChR M(1), M(3), M(5) positive allosteric modulator (PAM) lead. Part I: Development of the first highly selective M(5) PAM” (Bioorg Med Chem Lett, 2010)
